From patent US20260344668A1, “PHENYLPYRAZOLE COMPOUND, AND PLANT DISEASE CONTROL METHOD” (priority 2022, published 2026)

Experiments:
Cochliobolus miyabeanus = test: Test Example 6 Control Test Against Rice Brown Spot Fungus (96 well titer plate growth); assay type: cell-based; settings: 1 μL of 150 ppm DMSO solution + 150 μL YB liquid medium, 23° C., 3 days, absorbance at 550 nm
Procedure: (§1) The term of “non-treated well” in Test Example 4, Test Example 5, and Test Example 6 represents a well wherein a test was carried out under the same conditions as those described in each Test Example except for dispensing DMSO instead of a diluted solution with DMSO comprising the Present compound. Also, the term of “non-treated” in Test Examples 15 to 17 represents a test which was carried out under the same conditions as those described in each Test Example except for dispensing DMSO instead of a diluted solution with DMSO comprising the Present compound. Also, the term of “non-treated leaf disk” in Test Example 7 represents a leaf disk wherein a test was carried out under the same conditions as those described in the Test Example except for dispensing DMSO instead of a diluted solution with DMSO comprising the Present compound. Also, the term of “non-treated” in Test Example 10 and Test Example 11 means that a diluted solution with water of a formulation comprising the Present compound was not sprayed.
Each of the Present compound 17, 33, 36, 37, 39, 40, 41, 42, 43, 44, 48, 49, 50, 51, 52, 53, 62, 68, 69, 70, 71, 76, 77, 79, 80, 81, 82, 83, 84, or 97 was diluted with DMSO to obtain a diluted solution containing 150 ppm of each compound, and 1 μL of the diluted solution was dispensed into a titer plate (96 well), and thereto was then dispensed 150 μL of a YB liquid medium to which spores of Cochliobolus miyabeanus were inoculated in advance. This plate was cultured at 23° C. for 3 days, thereby allowing Cochliobolus miyabeanus to undergo proliferation, and the absorbance at 550 nm of each well of the titer plate was then measured to determine a degree of growth of Cochliobolus miyabeanus. As a result, the degree of growth in the well treated with each of the above Present compounds was 50% or less relative to the degree of growth in the non-treated well.

[1] = system: soybean rust fungus (Phakopsora pachyrhizi) having an amino acid substitution of F129L in a mitochondrial cytochrome b protein; test: Test Example 7 Control Test Against Soybean Rust (leaf disk); assay type: in vivo; settings: 200 ppm, 10 μL per soybean leaf disk (cultivar: Kurosengoku), inoculated after 1 day
Procedure: as §1
A true leaf of a soybean (cultivar: Kurosengoku) was cut into a diameter of 1 cm to prepare each leaf disk. To each well of a 24 well microplate was dispensed 1 mL of an agar medium (agar concentration 1.2%), and then one of said leaf disk was placed on the agar medium in each well. To a mixture of Sorpol (registered trademark) 1200KX (0.5 μL), DMSO (4.5 μL), and xylene (5 μL) was added a DMSO solution (20 μL) comprising a test compound (10000 ppm), and the resulting mixture was mixed. The resulting mixture was diluted with ion exchange water to prepare a mixture comprising a prescribed concentration of the test compound.
The resulting mixture was sprayed into each leaf disk at a ratio of 10 μL per leaf disk. After 1 day, an aqueous suspension of spores of soybean rust fungus (Phakopsora pachyrhizi) having an amino acid substitution of F129L in a mitochondrial cytochrome b protein (1.0×10^5/mL) was inoculated by spraying on each leaf disk. After the inoculation, the microplate was placed into an artificial climate chamber (Lighting: 6 hours, Lights-out: 18 hours, Temperature: 23° C., Humidity: 60%). After 1 day, the leaf disks were air-dried until water droplets on the surfaces of the leaf disks disappeared, and the microplate was placed into the artificial climate chamber again for 12 days. Then, lesion area of soybean rust was investigated. As a result, when the prescribed concentration was 200 ppm, each lesion area of leaf disk treated with any one of the Present compound 9, 10, 11, 13, 14, 15, 16, 17, 18, 20, 32, 33, 34, 35, 36, 37, 38, 39, 40, 42, 43, 44, 47, 48, 49, 50, 51, 52, 53, 55, 56, 57, 58, 62, 63, 64, 65, 66, 67, 68, 69, 70, 71, 73, 74, 75, 76, 77, 78, 79, 80, 81, 82, 83, 84, 85, 86, 87, 88, 89, 90, 91, 92, 93, 94, 95, 96, 97, 98, 99, 100, 101, or 102 as the test compound was 30% or less relative to the lesion area of non-treated leaf disk.

Phakopsora pachyrhizi [2] = test: Test Example 11 Control Test Against Soybean Rust (pot test, spraying before inoculation); assay type: in vivo; settings: 200 ppm foliage spray, soybeans (Kurosengoku), inoculated after 2 to 5 days
Procedure: as §1
A plastic pot was filled with soil, soybeans (cultivar: Kurosengoku) were seeded thereto, and cultured in a greenhouse for 10 to 14 days. The Present compound 9, 10, 11, 13, 14, 15, 17, 18, 20, 21, 22, 23, 26, 27, 33, 34, 35, 36, 37, 38, 39, 40, 41, 42, 43, 44, 46, 47, 53, 54, 55, 56, 57, 58, 66, 67, 68, 69, 70, 71, 73, 74, 75, 76, 77, 78, 79, 80, 81, 82, 83, 84, 85, 86, 87, 88, 89, 90, 91, 92, 93, 94, 95, 96, 97, 98, 99, 100, 101, or 102 formulated according to the method described in the Formulation Example 1 was mixed with water in such a way that the concentration thereof was 200 ppm, and the resulting mixture was sprayed to foliage of the above soybeans so as to adequately adhere onto the surfaces of leaves of the above soybeans. After spraying the mixture, the soybeans were air-dried. After 2 to 5 days, an aqueous suspension of spores of Phakopsora pachyrhizi was inoculated by spraying to the soybeans. After the inoculation, the soybeans were placed in a greenhouse at 23° C. in daytime and at 20° C. in nighttime under a humid condition for 1 to 2 day(s), then cultured in a greenhouse for 12 days, and then a lesion area was investigated. As a result, the lesion area in the soybeans treated with each of the above Present compound was 30% or less relative to the lesion area in the non-treated soybeans.

Phakopsora pachyrhizi [3] = test: Test Example 15 Control Test Against Soybean Rust Fungus (spore germination, 96 well titer plate); assay type: cell-based; settings: treatment concentration 1 ppm, 23° C., several hours
Procedure: as §1
The Present compound was diluted with DMSO to obtain a diluted solution containing 150 ppm of the compound, and 1 μL of the diluted solution was dispensed into a titer plate (96 well), and thereto was then dispensed 149 μL of an aqueous suspension (1.0×10^4/mL) of spores of Phakopsora pachyrhizi to which spores of Phakopsora pachyrhizi were suspended in advance. This plate was cultured at 23° C. for several hours, and then germinated spores of Phakopsora pachyrhizi were counted. As a result, when the treatment concentration was 1 ppm, the number of germinated spores in each well comprising any one of the Present compound 1, 11, 17, 18, 20, 23, 30, 33, 34, 35, 36, 37, 38, 39, 40, 41, 42, 43, 44, 46, 47, 48, 49, 50, 51, 52, 53, 54, 55, 56, 57, 58, 62, 63, 64, 65, 66, 67, 68, 69, 70, 71, 72, 73, 74, 75, 76, 77, 78, 79, 80, 81, 82, 83, 84, 85, 86, 87, 88, 89, 90, 91, 92, 93, 94, 95, 96, 97, 98, 99, 100, 101, or 102 as the test compound was 50% or less relative to the number of germinated spores in the non-treated well.

SMILES | degree of growth relative to the degree of growth in the non-treated well (Cochliobolus miyabeanus) [%] | lesion area relative to the lesion area of non-treated leaf disk [1] [%] | lesion area relative to the lesion area in the non-treated soybeans (Phakopsora pachyrhizi [2]) [%] | number of germinated spores relative to the non-treated well (Phakopsora pachyrhizi [3]) [%]
O=S(=O)(c1cccc(F)c1)n1ccc(-c2cc(F)c(Br)c(F)c2)n1 [compound 17] | ≤ 50 | ≤ 30 | ≤ 30 | ≤ 50
CSc1ccc(-c2ccn(S(=O)(=O)c3cccs3)n2)cc1 [compound 41] | ≤ 50 | – | ≤ 30 | ≤ 50
Cn1nccc1S(=O)(=O)n1ccc(-c2cc(F)c(Br)c(F)c2)n1 [compound 48] | ≤ 50 | ≤ 30 | – | ≤ 50
O=S(=O)(c1ccco1)n1ccc(-c2ccc(Br)cc2)n1 [compound 49] | ≤ 50 | ≤ 30 | – | ≤ 50
O=S(=O)(c1ccco1)n1ccc(-c2ccc(Br)c(F)c2)n1 [compound 50] | ≤ 50 | ≤ 30 | – | ≤ 50
O=S(=O)(c1ccoc1)n1ccc(-c2ccc(Br)cc2)n1 [compound 51] | ≤ 50 | ≤ 30 | – | ≤ 50
O=S(=O)(c1ccoc1)n1ccc(-c2ccc(Br)c(F)c2)n1 [compound 52] | ≤ 50 | ≤ 30 | – | ≤ 50
O=S(=O)(c1cccs1)n1ccc(-c2ccc3c(c2)CCC3)n1 [compound 62] | ≤ 50 | ≤ 30 | – | ≤ 50
O=S(=O)(c1ccoc1)n1ccc(-c2cc(F)cc(F)c2)n1 [compound 74] | – | ≤ 30 | ≤ 30 | ≤ 50
O=S(=O)(c1cccs1)n1ccc(-c2cc(F)cc(F)c2)n1 [compound 75] | – | ≤ 30 | ≤ 30 | ≤ 50
O=S(=O)(c1ccco1)n1ccc(-c2ccccc2)n1 [compound 85] | – | ≤ 30 | ≤ 30 | ≤ 50
O=S(=O)(c1ccoc1)n1ccc(-c2ccccc2)n1 [compound 86] | – | ≤ 30 | ≤ 30 | ≤ 50
O=S(=O)(c1cccs1)n1ccc(-c2ccccc2)n1 [compound 87] | – | ≤ 30 | ≤ 30 | ≤ 50
O=S(=O)(c1ccco1)n1ccc(-c2ccc(F)cc2)n1 [compound 88] | – | ≤ 30 | ≤ 30 | ≤ 50
O=S(=O)(c1cccs1)n1ccc(-c2ccc(F)cc2)n1 [compound 90] | – | ≤ 30 | ≤ 30 | ≤ 50
O=S(=O)(c1ccco1)n1ccc(-c2ccc(F)c(F)c2)n1 [compound 91] | – | ≤ 30 | ≤ 30 | ≤ 50
O=S(=O)(c1ccco1)n1ccc(-c2cccc(F)c2)n1 [compound 94] | – | ≤ 30 | ≤ 30 | ≤ 50
O=S(=O)(c1ccoc1)n1ccc(-c2cccc(F)c2)n1 [compound 95] | – | ≤ 30 | ≤ 30 | ≤ 50
O=S(=O)(c1cccnc1)n1ccc(-c2cc(F)cc(F)c2)n1 [compound 98] | – | ≤ 30 | ≤ 30 | ≤ 50
O=S(=O)(c1cncc(F)c1)n1ccc(-c2cc(F)c(Br)c(F)c2)n1 [compound 100] | – | ≤ 30 | ≤ 30 | ≤ 50
O=S(=O)(c1cccnc1)n1ccc(-c2ccc(F)c(F)c2)n1 [compound 101] | – | ≤ 30 | ≤ 30 | ≤ 50
